Structures are written as SMILES. Calls of active or inactive are those of the source. No cut-off for these calls is given here.

Broadly, the EC50 is the concentration giving half of the maximal effect.

The target of test [1] is Metabotropic glutamate receptor 3 (Rattus norvegicus, UniProt P31422). The experiment in a line: Positive allosteric modulator activity at rat mGlu3 receptor transfected in GIRK channel overexpressing cells assessed as potentiation of glutamate-induced response by thallium mobilization assay. The settings on record: read-out: EC50.
The target of test [2] is Metabotropic glutamate receptor 2 (Rattus norvegicus, UniProt P31421). In words: Positive allosteric modulator activity at rat mGlu2 receptor transfected in GIRK channel overexpressing cells assessed as potentiation of glutamate-induced response by thallium mobilization assay. As to conditions: read-out: EC50.
Test [3] addresses Metabotropic glutamate receptor 3 (Rattus norvegicus) (UniProt P31422). The experiment in a line: Positive allosteric modulator activity at rat mGlu3 receptor transfected in GIRK channel overexpressing cells assessed as potentiation of glutamate-induced response by thallium mobilization assay relative to glutamate. Also on record: concentration or dose not given beside the values. The settings on record: filed as positive allosteric modulator.

The target of test [4] is Metabotropic glutamate receptor 2 (Rattus norvegicus) (UniProt P31421). In words: Positive allosteric modulator activity at rat mGlu2 receptor transfected in GIRK channel overexpressing cells assessed as potentiation of glutamate -induced response by thallium mobilization assay relative to glutamate. Set-up: concentration or dose not given beside the values. The settings on record: filed as positive allosteric modulator.

Test [5] addresses Metabotropic glutamate receptor 3 (Mus musculus) (UniProt Q9QYS2). The experiment in a line: Positive allosteric modulator activity at mGlu3 receptor in CaMK2-Cre::GCaMP6s transgenic mouse PFC pyramidal cells assessed as potentiation of LY379268-induced Ca2+ mobilization at 10 uM in presence of mGlu2 negative allosteric modulator, VU6001966 by calcium imagining analysis. Type of test: functional. The settings on record: filed as positive allosteric modulator. Background: A change in cytosolic calcium serves as a functional read-out for many receptors and channels.

Metabotropic glutamate receptor 3 (Rattus norvegicus), sequence (P31422 23-879 limits assumed): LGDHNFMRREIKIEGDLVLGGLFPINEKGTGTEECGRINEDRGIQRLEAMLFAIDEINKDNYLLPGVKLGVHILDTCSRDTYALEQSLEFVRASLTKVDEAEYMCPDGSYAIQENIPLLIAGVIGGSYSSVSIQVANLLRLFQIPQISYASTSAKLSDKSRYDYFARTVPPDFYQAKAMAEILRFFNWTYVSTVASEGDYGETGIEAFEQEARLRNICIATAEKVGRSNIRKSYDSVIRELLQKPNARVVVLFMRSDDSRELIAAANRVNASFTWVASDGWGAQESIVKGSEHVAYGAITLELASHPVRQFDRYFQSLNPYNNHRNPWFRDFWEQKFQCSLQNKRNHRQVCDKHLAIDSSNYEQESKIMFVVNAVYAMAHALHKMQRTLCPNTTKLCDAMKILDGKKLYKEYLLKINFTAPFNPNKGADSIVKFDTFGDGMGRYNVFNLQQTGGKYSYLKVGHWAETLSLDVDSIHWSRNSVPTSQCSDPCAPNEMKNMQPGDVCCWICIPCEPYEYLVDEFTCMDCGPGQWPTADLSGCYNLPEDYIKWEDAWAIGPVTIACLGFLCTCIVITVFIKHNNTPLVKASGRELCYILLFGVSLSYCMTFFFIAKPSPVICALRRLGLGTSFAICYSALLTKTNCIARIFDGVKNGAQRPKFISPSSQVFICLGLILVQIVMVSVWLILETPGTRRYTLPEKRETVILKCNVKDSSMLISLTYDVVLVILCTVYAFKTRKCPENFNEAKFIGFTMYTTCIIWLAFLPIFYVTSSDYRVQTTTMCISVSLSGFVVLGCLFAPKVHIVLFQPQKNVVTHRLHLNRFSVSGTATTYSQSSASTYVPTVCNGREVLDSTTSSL
Metabotropic glutamate receptor 2, sequence (P31421 whole entry): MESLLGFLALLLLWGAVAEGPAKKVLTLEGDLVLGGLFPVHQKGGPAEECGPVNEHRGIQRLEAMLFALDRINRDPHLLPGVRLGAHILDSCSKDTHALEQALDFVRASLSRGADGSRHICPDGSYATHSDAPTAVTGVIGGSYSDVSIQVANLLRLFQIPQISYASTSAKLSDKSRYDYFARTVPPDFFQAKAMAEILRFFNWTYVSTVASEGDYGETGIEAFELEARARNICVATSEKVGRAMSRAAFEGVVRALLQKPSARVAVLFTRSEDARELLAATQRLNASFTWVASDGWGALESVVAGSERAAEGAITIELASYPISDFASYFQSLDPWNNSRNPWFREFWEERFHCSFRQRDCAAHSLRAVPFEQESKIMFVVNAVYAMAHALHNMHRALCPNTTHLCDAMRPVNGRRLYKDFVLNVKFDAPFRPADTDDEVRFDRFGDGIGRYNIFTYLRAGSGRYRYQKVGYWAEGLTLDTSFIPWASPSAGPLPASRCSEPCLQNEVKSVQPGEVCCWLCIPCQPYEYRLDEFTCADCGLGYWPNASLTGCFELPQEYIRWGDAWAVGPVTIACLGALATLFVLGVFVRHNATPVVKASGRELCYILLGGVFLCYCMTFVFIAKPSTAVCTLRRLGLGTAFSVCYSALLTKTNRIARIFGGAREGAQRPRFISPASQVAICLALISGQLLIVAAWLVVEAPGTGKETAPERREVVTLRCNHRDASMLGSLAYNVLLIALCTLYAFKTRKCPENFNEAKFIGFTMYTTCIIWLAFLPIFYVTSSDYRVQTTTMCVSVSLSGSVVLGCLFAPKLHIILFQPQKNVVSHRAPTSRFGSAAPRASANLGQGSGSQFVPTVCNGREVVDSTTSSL
Metabotropic glutamate receptor 3, sequence (P31422 whole entry): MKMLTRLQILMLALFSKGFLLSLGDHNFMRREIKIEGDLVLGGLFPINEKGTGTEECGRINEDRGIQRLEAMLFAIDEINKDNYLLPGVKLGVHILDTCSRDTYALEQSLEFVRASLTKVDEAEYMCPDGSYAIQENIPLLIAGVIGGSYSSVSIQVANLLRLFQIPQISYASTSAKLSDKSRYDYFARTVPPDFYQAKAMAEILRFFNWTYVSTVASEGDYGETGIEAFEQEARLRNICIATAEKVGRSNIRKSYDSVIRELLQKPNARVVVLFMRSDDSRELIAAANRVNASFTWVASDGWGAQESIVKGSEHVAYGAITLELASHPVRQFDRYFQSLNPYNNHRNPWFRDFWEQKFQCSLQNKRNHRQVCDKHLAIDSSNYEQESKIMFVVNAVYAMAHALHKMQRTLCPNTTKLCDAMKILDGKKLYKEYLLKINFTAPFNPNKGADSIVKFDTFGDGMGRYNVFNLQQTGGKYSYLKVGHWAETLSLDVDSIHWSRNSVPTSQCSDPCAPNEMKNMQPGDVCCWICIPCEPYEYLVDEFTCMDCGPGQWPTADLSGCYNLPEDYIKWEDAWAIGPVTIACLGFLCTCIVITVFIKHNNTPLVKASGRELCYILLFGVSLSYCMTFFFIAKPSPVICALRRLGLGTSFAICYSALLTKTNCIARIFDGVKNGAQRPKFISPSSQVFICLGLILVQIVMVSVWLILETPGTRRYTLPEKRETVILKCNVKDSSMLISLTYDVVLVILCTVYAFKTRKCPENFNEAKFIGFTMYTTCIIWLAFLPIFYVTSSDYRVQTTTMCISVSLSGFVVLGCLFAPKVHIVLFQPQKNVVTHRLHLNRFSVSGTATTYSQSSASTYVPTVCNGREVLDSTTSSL
Metabotropic glutamate receptor 3 (Mus musculus), sequence (Q9QYS2 whole entry): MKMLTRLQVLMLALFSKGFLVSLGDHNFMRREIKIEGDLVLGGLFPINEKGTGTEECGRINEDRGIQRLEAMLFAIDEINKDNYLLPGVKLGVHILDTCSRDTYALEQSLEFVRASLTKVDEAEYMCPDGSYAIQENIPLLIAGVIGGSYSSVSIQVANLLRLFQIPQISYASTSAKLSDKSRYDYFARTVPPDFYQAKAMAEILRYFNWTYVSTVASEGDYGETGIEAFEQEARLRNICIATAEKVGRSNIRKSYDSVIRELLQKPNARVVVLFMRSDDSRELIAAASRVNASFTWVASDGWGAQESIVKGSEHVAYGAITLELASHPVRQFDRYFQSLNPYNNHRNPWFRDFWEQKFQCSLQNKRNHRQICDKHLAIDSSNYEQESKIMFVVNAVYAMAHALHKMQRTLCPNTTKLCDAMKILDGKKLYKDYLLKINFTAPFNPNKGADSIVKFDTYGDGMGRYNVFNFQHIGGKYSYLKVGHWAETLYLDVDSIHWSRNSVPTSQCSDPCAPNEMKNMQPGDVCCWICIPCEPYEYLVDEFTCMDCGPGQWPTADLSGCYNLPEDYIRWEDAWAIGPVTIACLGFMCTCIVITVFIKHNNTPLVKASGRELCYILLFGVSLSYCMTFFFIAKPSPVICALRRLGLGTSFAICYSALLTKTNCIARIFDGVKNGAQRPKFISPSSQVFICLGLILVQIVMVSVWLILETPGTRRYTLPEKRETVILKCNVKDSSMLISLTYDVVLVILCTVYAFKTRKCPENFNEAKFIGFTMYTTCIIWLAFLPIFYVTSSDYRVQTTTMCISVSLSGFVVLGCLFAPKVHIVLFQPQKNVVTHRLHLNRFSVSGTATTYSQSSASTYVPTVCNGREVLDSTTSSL
Metabotropic glutamate receptor 2 (Rattus norvegicus), sequence (P31421 19-872 limits assumed): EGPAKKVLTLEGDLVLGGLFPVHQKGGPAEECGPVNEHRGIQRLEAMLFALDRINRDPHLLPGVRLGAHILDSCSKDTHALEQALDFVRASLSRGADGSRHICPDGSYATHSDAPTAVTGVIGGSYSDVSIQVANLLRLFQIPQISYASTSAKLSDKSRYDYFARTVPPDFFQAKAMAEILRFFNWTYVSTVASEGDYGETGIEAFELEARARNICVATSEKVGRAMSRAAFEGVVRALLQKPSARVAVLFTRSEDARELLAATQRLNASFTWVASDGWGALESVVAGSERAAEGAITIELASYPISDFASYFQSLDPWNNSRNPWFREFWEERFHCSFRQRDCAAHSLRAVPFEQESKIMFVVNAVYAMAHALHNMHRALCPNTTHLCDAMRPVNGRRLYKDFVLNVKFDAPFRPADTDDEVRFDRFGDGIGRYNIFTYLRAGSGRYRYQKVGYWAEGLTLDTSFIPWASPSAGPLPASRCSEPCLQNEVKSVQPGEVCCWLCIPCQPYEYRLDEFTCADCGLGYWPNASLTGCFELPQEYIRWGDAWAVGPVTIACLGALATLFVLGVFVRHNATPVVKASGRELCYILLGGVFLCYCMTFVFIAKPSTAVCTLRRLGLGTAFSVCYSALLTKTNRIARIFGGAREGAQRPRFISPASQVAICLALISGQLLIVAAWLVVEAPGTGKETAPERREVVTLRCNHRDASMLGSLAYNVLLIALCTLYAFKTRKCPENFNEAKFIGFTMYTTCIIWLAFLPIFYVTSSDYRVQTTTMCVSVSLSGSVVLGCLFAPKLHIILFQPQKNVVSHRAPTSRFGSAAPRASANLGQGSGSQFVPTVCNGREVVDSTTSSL

For the molecule `COc1ccc(C(=O)O)cc1OC[C@H](C)COc1ccc(C(=O)CC(C)(C)C)c(O)c1C`, the EC50 in test [1] is 384 nM; in test [2], 63 nM. The Activity in test [3] turned out to be 111%; in test [4], 98%. Besides, the result in test [5] was Active.
